Legend:
Format in all cases: in vivo
[1] = test system: Green Peach Aphid (Myzus persicae, MYZUPE); experiment: Bioassay on Green Peach Aphid (GPA), foliar spray on cabbage seedlings; details: 72 h, 200 ppm spray on infested cabbage seedlings, graded after three days, Abbott corrected % control, read-out: GPA % Control (or Mortality) rating
Method: Certain molecules disclosed in this document were tested against GPA using procedures described in the following example. In the reporting of the results, the “GPA Rating Table” was used (See Table Section).
Cabbage seedlings grown in 3-inch pots, with 2-3 small (3-5 cm) true leaves, were used as test substrate. The seedlings were infested with 20-50 GPA (wingless adult and nymph stages) one day prior to chemical application. Four pots with individual seedlings were used for each treatment. Test compounds (2 mg) were dissolved in 2 mL of acetone/methanol (1:1) solvent, forming stock solutions of 1000 ppm test compound. The stock solutions were diluted 5× with 0.025% Tween 20 in water to obtain the solution at 200 ppm test compound. A hand-held aspirator-type sprayer was used for spraying a solution to both sides of […] leaves until runoff. Reference plants (solvent check) were sprayed with the diluent only containing 20% by volume of acetone/methanol (1:1) solvent. Treated plants were held in a holding room for three days at approximately 25° C. and ambient relative humidity (RH) prior to grading. Evaluation was conducted by counting the number of live aphids per plant under a microscope. Percent Control was measured by using Abbott's correction formula (W. S. Abbott, “A Method of Computing the Effectiveness of an Insecticide” J. Econ. Entomol. 18 (1925), pp. 265-267) as follows. Corrected % Control=100*(X−Y)/X where X=No. of live aphids on solvent check plants and Y=No. of live aphids on treated plants

[2] = test system: Yellow Fever Mosquito (Aedes aegypti, AEDSAE); details: about 1 day-old larvae, master plate 4000 ppm in DMSO diluted, room temperature, scored after 3 days on mortality
Method: Certain molecules disclosed in this document were tested against YFM using procedures described in the following paragraph. In the reporting of the results, the “YFM Rating Table” was used (See Table Section).
Master plates containing 400 μg of a molecule dissolved in 100 μL of dimethyl sulfoxide (DMSO) (equivalent to a 4000 ppm solution) are used. A master plate of assembled molecules contains 15 μL per well. To this plate, 135 μL of a 90:10 water:acetone mixture is added to each well. A robot (Biomek® NXP Laboratory Automation Workstation) is programmed to dispense 15 μL aspirations from the master plate into an empty 96-well shallow plate (“daughter” plate). There are 6 reps (“daughter” plates) created per master. The created daughter plates are then immediately infested with YFM larvae.
The day before plates are to be treated, mosquito eggs are placed in Millipore water containing liver powder to begin hatching (4 g. into 400 mL). After the daughter plates are created using the robot, they are infested with 220 μL of the liver powder/larval mosquito mixture (about 1 day-old larvae). After plates are infested with mosquito larvae, a non-evaporative lid is used to cover the plate to reduce drying. Plates are held at room temperature for 3 days prior to grading. After 3 days, each well is observed and scored based on mortality.

[3] = test system: Beet Armyworm (Spodoptera exigua, LAPHEG); experiment: Bioassay on Beet Armyworm (BAW), 128-well diet tray assay; details: 168 h, 50 μg/cm^2 on artificial diet, second instar BAW larvae, 25° C., five to seven days, average of eight wells, read-out: BAW % Control (or Mortality) rating
Method: (§1) Certain molecules disclosed in this document were tested against BAW and CEW using procedures described in the following examples. In the reporting of the results, the “BAW & CL Rating Table” was used (See Table Section).
Bioassays on BAW were conducted using a 128-well diet tray assay. one to five second instar BAW larvae were placed in each well (3 mL) of the diet tray that had been previously filled with 1 mL of artificial diet to which 50 μg/cm^2 of the test compound (dissolved in 50 μL of 90:10 acetone-water mixture) had been applied (to each of eight wells) and then allowed to dry. Trays were covered with a clear self-adhesive cover and held at 25° C., 14:10 light-dark for five to seven days. Percent mortality was recorded for the larvae in each well; activity in the eight wells was then averaged. The results are indicated in the table entitled “Table ABC: Biological Results” (See Table Section).

[4] = test system: Cabbage Looper (Trichoplusia ni, TRIPNI); experiment: Bioassay on Cabbage Looper (CL), 128-well diet tray assay; details: 168 h, 50 μg/cm^2 on artificial diet, second instar CL larvae, 25° C., five to seven days, average of eight wells, read-out: CL % Control (or Mortality) rating
Method: as §1
Bioassays on CL were conducted using a 128-well diet tray assay, one to five second instar CL larvae were placed in each well (3 mL) of the diet tray that had been previously filled with 1 mL of artificial diet to which 50 μg/cm^2 of the test compound (dissolved in 50 μL of 90:10 acetone-water mixture) had been applied (to each of eight wells) and then allowed to dry. Trays were covered with a clear self-adhesive cover and held at 25° C., 14:10 light-dark for five to seven days. Percent mortality was recorded for the larvae in each well; activity in the eight wells was then averaged. The results are indicated in the table entitled “Table ABC: Biological Results” (See Table Section).

SMILES	mortality at 200 ppm [1]	YFM % Control (or Mortality) rating [2]	mortality at 50 µg/cm2 [3]	mortality at 50 µg/cm2 [4]
FC(F)(F)Oc1ccc(-n2cnc(-c3ccc(NC4=NC(c5ccc(C(F)(F)F)cc5)CCO4)cc3)n2)cc1 (centres unmarked) [Compound F45, N-(4-(1-(4-(Trifluoromethoxy)phenyl)-1H-1,2,4-triazol-3-yl)phenyl)-4-(4-(trifluoromethyl)phenyl)-5,6-dihydro-4H-1,3-oxazin-2-amine]	80 to 100%	B (More than 0-Less than 80)	50 to 100%	50 to 100%
FC(F)(F)Oc1ccc(-n2cnc(-c3ccc(NC4=NC(c5ccc(C(F)(F)F)cc5)CO4)cc3)n2)cc1 (centres unmarked) [Compound F5, N-(4-(1-(4-(Trifluoromethoxy)phenyl)-1H-1,2,4-triazol-3-yl)phenyl)-4-(4-(trifluoromethyl)phenyl)-4,5-dihydrooxazol-2-amine]	80 to 100%	B (More than 0-Less than 80)	50 to 100%	50 to 100%
FC(F)(F)Oc1ccc(-n2cnc(-c3ccc(NC4=NC(c5ccccc5Cl)CO4)cc3)n2)cc1 (centres unmarked) [Compound F11, 4-(2-Chlorophenyl)-N-(4-(1-(4-(trifluoromethoxy)phenyl)-1H-1,2,4-triazol-3-yl)phenyl)-4,5-dihydrooxazol-2-amine]	0%	D (No activity noticed in this bioassay)	50 to 100%	50 to 100%
Cc1ccc(C2CCOC(Nc3ccc(-c4ncn(-c5ccc(OC(F)(F)F)cc5)n4)cc3)=N2)cc1 (centres unmarked) [Compound F44, 4-(p-Tolyl)-N-(4-(1-(4-(trifluoromethoxy)phenyl)-1H-1,2,4-triazol-3-yl)phenyl)-5,6-dihydro-4H-1,3-oxazin-2-amine]	80 to 100%	B (More than 0-Less than 80)	0 to 50%	50 to 100%
FC(F)(F)Oc1ccc(-n2cnc(-c3ccc(NC4=N[C@@H](c5ccccc5)CO4)cc3)n2)cc1 [Compound F2, (S)-4-Phenyl-N-(4-(1-(4-(trifluoromethoxy)phenyl)-1H-1,2,4-triazol-3-yl)phenyl)-4,5-dihydrooxazol-2-amine]	80 to 100%	B (More than 0-Less than 80)	50 to 100%	50 to 100%
FC(F)(F)Oc1ccc(-n2cnc(-c3ccc(NC4=N[C@H](c5ccccc5)CO4)cc3)n2)cc1 [Compound F1, (R)-4-Phenyl-N-(4-(1-(4-(trifluoromethoxy)phenyl)-1H-1,2,4-triazol-3-yl)phenyl)-4,5-dihydrooxazol-2-amine]	80 to 100%	B (More than 0-Less than 80)	50 to 100%	50 to 100%
FC(F)(F)Oc1ccc(-n2cnc(-c3ccc(NC4=NC(c5ccc(Cl)cc5)CCO4)cc3)n2)cc1 (centres unmarked) [Compound F43, 4-(4-Chlorophenyl)-N-(4-(1-(4-(trifluoromethoxy)phenyl)-1H-1,2,4-triazol-3-yl)phenyl)-5,6-dihydro-4H-1,3-oxazin-2-amine]	80 to 100%	B (More than 0-Less than 80)	0 to 50%	50 to 100%
FC(F)(F)Oc1ccc(-n2cnc(-c3ccc(NC4=N[C@H](c5ccccc5)CCO4)cc3)n2)cc1 [Compound F20, (S)-4-Phenyl-N-(4-(1-(4-(trifluoromethoxy)phenyl)-1H-1,2,4-triazol-3-yl)phenyl)-5,6-dihydro-4H-1,3-oxazin-2-amine]	80 to 100%	B (More than 0-Less than 80)	0%	50 to 100%

From patent publication US9326516B2, “Molecules having certain pesticidal utilities, and intermediates, compositions, and processes related thereto” (Dow AgroSciences LLC, priority 2014, dated 2016)
